From EP4273147A1, “SUBSTITUTED SPIROLACTAMS, SALTS THEREOF AND THEIR USE AS HERBICIDALLY ACTIVE SUBSTANCES” (Bayer Aktiengesellschaft, priority 2022, dated 2023)

Assays:
[1] = tested on: SETVI; assay: Herbicidal pre-emergence action (Table A5); format: in vivo, Setaria viridis; conditions: visual grading after ca. 3 weeks
Description: (§1) Seeds of mono- and dicotyledonous weed plants were sown in plastic pots (double sowings with one species of mono- and one species of dicotyledonous weed plants per pot), in sandy loam, and covered with soil.

[2] = tested on: POAAN; assay: Herbicidal pre-emergence action (Table A7); format: in vivo, Poa annua; conditions: visual grading after ca. 3 weeks; for pest or weed control at 1280 g/ha: Poa annua, pre-emergence, 504 h, read-out: pre-emergence activity against POAAN
Description: as §1

[3] = tested on: STEME; assay: Herbicidal pre-emergence action (Table A6); format: in vivo, Stellaria media; conditions: visual grading after ca. 3 weeks
Description: as §1

[4] = tested on: ECHCG; assay: Herbicidal pre-emergence action (Table A2); format: in vivo, Echinochloa crus-galli; conditions: visual grading after ca. 3 weeks
Description: as §1

[5] = tested on: MATIN; assay: Herbicidal pre-emergence action (Table A4); format: in vivo, Matricaria inodora; conditions: visual grading after ca. 3 weeks
Description: as §1

[6] = tested on: DIGSA; assay: Herbicidal pre-emergence action (Table A12); format: in vivo, Digitaria sanguinalis; conditions: visual grading after ca. 3 weeks
Description: as §1

[7] = tested on: KCHSC; assay: Herbicidal pre-emergence action (Table A10); format: in vivo, Kochia scoparia; conditions: application rate 1280 g/ha; visual grading after ca. 3 weeks
Description: as §1

[8] = tested on: LOLRI; assay: Herbicidal pre-emergence action (Table A3); format: in vivo, Lolium rigidum; conditions: visual grading after ca. 3 weeks
Description: as §1

[9] = tested on: POAAN; assay: Herbicidal post-emergence action (Table B7); format: in vivo, Poa annua
Procedure: (§2) Seeds of mono- and dicotyledonous weed plants were placed in plastic pots in sandy loam soil (doubly sown with in each case one species of mono- or dicotyledonous weed plants per pot), covered with soil and cultivated in a greenhouse under controlled growth conditions. 2 to 3 weeks after sowing, the test plants were treated at the one-leaf stage. […] After the test plants had been kept in the greenhouse under optimum growth conditions for about 3 weeks, the activity of the preparations was rated visually in comparison to untreated controls. For example, 100% activity = the plants have died, 0% activity = like control plants.

[10] = tested on: ECHCG; assay: Herbicidal post-emergence action (Table B3); format: in vivo, Echinochloa crus-galli; conditions: application rate 1280 g/ha; rated visually after about 3 weeks
Procedure: as §2

SMILES	pre-emergence activity against SETVI ([1]; application rate 1280 g/ha)	pre-emergence activity against POAAN ([2]; application rate 1280 g/ha)	pre-emergence activity against STEME ([3]; application rate 1280 g/ha)	pre-emergence activity against ECHCG ([4]; application rate 1280 g/ha)	pre-emergence activity against POAAN ([2]; application rate 320 g/ha)	other results
O=C1N(Cc2cc(Cl)cnc2Cl)CCCC12CCCN(Cc1cc(Cl)cnc1Cl)C2=O (racemic) [I-117]	100%	100%				
COc1ccccc1CN1CCCC2(CCCN(c3ccccc3)C2=O)C1=O (racemic) [I-102]	90%	90%	90%	90%		
O=C1N(Cc2c(F)cccc2C(F)(F)F)CCCC12CCCN(Cc1c(F)cccc1C(F)(F)F)C2=O (racemic) [I-041]		90%				pre-emergence activity against STEME ([3]; application rate 320 g/ha): 100%
O=C1N(Cc2ccc(F)cc2Cl)CCCC12CCCN(Cc1ccc(F)cc1Cl)C2=O (racemic) [I-070]		100%	90%			
O=C1N(Cc2ccsc2)CCCC12CCCN(Cc1ccccc1F)C2=O (racemic) [I-104]					100%	pre-emergence activity against MATIN ([5]; application rate 320 g/ha): 90%; pre-emergence activity against SETVI ([1]; application rate 320 g/ha): 90%; pre-emergence activity against ECHCG ([4]; application rate 320 g/ha): 90%
O=C1N(Cc2cscc2Br)CCCC12CCCN(Cc1cscc1Br)C2=O (racemic) [I-186, 2,8-bis[(4-bromothiophen-3-yl)methyl]-2,8-diazaspiro[5.5]undecane-1,7-dione]						pre-emergence activity against DIGSA ([6]; application rate 1280 g/ha): 90%; pre-emergence activity against KCHSC [7]: 90%
N#Cc1ccccc1CN1CCCC2(CCCN(Cc3ccccc3C#N)C2=O)C1=O (racemic) [I-094]	90%	100%				
Cc1ccccc1CN1CCCC2(CCN(Cc3cccc(F)c3F)C2=O)C1=O (racemic) [I-081]	100%		90%		100%	pre-emergence activity against DIGSA ([6]; application rate 320 g/ha): 90%; pre-emergence activity against LOLRI ([8]; application rate 1280 g/ha): 90%; pre-emergence activity against MATIN ([5]; application rate 1280 g/ha): 90%
Cc1cc(CN2CCCC3(CCCN(Cc4cc(C)no4)C3=O)C2=O)on1 (racemic) [I-195, 2,8-bis[(3-methyl-1,2-oxazol-5-yl)methyl]-2,8-diazaspiro[5.5]undecane-1,7-dione]						pest or weed control at 1280 g/ha ([2]; application rate 1280 g/ha): 100%
Cc1ccccc1CN1CCCC2(CCN(Cc3c(F)cccc3F)C2=O)C1=O (racemic) [I-077]	100%		90%		100%	pre-emergence activity against DIGSA ([6]; application rate 320 g/ha): 90%; pre-emergence activity against LOLRI ([8]; application rate 320 g/ha): 100%
O=C1N(Cc2ccccc2Br)CCCC12CCCN(Cc1ccccc1Br)C2=O (racemic) [I-064]	90%	100%		90%		post-emergence activity against POAAN ([9]; application rate 1280 g/ha): 100%
O=C1N(Cc2c(F)cccc2F)CCCC12CCCN(CC1CCCCC1)C2=O (racemic) [I-034]			100%	90%	100%	pre-emergence activity against DIGSA ([6]; application rate 1280 g/ha): 100%; pre-emergence activity against LOLRI ([8]; application rate 1280 g/ha): 100%; pre-emergence activity against SETVI ([1]; application rate 320 g/ha): 90%; post-emergence activity against POAAN ([9]; application rate 1280 g/ha): 90%
O=C1N(Cc2ccccc2C(F)F)CCCC12CCCN(Cc1ccccc1C(F)F)C2=O (racemic) [I-067]	100%				100%	
O=C1N(Cc2ccsc2Br)CCCC12CCCN(Cc1ccsc1Br)C2=O (racemic) [I-216, 2,8-bis[(2-bromothien-3-yl)methyl]-2,8-diazaspiro[5.5]undecane-1,7-dione]						pest or weed control at 1280 g/ha ([2]; application rate 1280 g/ha): 90%
O=C1N(Cc2c(F)ccc(F)c2Cl)CCCC12CCCN(Cc1c(F)ccc(F)c1Cl)C2=O (racemic) [I-078]		100%				pre-emergence activity against STEME ([3]; application rate 320 g/ha): 90%
O=C1N(Cc2cnc(Br)s2)CCCC12CCCN(Cc1cnc(Br)s1)C2=O (single isomer, unassigned; (-)) [I-206, (-)-2,8-bis[(2-bromo-1,3-thiazol-5-yl)methyl]-2,8-diazaspiro[5.5]undecane-1,7-dione]	100%		90%	100%	100%	pre-emergence activity against DIGSA ([6]; application rate 1280 g/ha): 90%; pre-emergence activity against LOLRI ([8]; application rate 1280 g/ha): 90%
Cc1ccccc1CN1CCCC2(CCCN(Cc3cccs3)C2=O)C1=O (racemic) [I-043]	100%		90%		100%	post-emergence activity against ECHCG [10]: 90%; post-emergence activity against POAAN ([9]; application rate 320 g/ha): 90%; pre-emergence activity against ECHCG ([4]; application rate 320 g/ha): 100%
O=C1N(Cc2cnc(Br)s2)CCCC12CCCN(Cc1cnc(Br)s1)C2=O (racemic) [I-204, 2,8-bis[(2-bromo-1,3-thiazol-5-yl)methyl]-2,8-diazaspiro[5.5]undecane-1,7-dione]				100%		pest or weed control at 1280 g/ha ([8]; Lolium rigidum, pre-emergence, 504 h, application rate 1280 g/ha, read-out: pre-emergence activity against LOLRI): 90%; pest or weed control at 1280 g/ha ([2]; application rate 1280 g/ha): 100%
O=C1N(Cc2c(F)c(F)c(F)c(F)c2F)CCCC12CCCN(Cc1c(F)c(F)c(F)c(F)c1F)C2=O (racemic) [I-050]	100%	100%	100%	100%		post-emergence activity against ECHCG [10]: 100%
CCc1cc(CN2CCCC3(CCCN(Cc4cc(CC)no4)C3=O)C2=O)on1 (racemic) [I-100]				100%		pre-emergence activity against LOLRI ([8]; application rate 1280 g/ha): 100%
O=C1N(Cc2ccsc2)CCCC12CCCN(Cc1ccccc1Cl)C2=O (racemic) [I-099]	100%			100%		pre-emergence activity against LOLRI ([8]; application rate 1280 g/ha): 100%
Cc1ccccc1CN1CCCC2(CCN(Cc3ccccc3F)C2=O)C1=O (racemic) [I-086]	90%	100%		100%		pre-emergence activity against DIGSA ([6]; application rate 1280 g/ha): 100%
O=C1N(Cc2ccccc2Cl)CCC12CCCN(Cc1cccc(F)c1F)C2=O (racemic) [I-049]			90%	100%	100%	pre-emergence activity against DIGSA ([6]; application rate 320 g/ha): 90%; pre-emergence activity against LOLRI ([8]; application rate 320 g/ha): 90%; pre-emergence activity against SETVI ([1]; application rate 320 g/ha): 100%; post-emergence activity against ECHCG [10]: 90%
